Consider six compounds from patent US5073571A, “Method of inhibiting virus” (priority 1989, dated 1991).

One data set has as its system virus. The data set is described as follows: Antiviral effectiveness compared with C13-C14 analogs. The following applies: C16 saturated fatty acid analog.
Data set [1] deals with HIV-1. The data set is described as follows: Syncytia assay in HIV-1 infected H9 cells. The format is cell-based, HIV-1 strain HXB2gptX (in human H9 cells). The note with it: compared to infected, untreated H9 controls. The protocol:
(§1) Media was changed every other day. The effect of these compounds on virus production was determined by measuring the reverse transcriptase (RT) activity in samples of the cell culture supernatants. […] Negative controls consisted of no additions or 0.1ethanol. The results of duplicate assays were averaged. Panel B -Concentration-dependent effects of 13-oxamyristic acid on HIV-1 replication as measured by RT activity (percent of untreated control) and the presence of p24 antigen (ng/ml determined by ELISA). Error bars indicate the S.E.M. of assays done in triplicate. Panel C - The effect of 13-oxamyristic acid on syncytia formation using an arbitrary scale described under Materials and Methods, Example 16, below. Panel D - Toxicity of 13-oxamyristic acid determined by viable cell count (trypan blue exclusion), as well as by [^3 H]thymidine and [^3 H]leucine labeling (see under Materials and Methods, Example 16, below). The incorporation of these radiolabeled compounds was determined in the total cell population contained in a well after 10 days of treatment with the analog. Duplicate assays were performed and the results averaged.
Assay for HIV-1 Replication. The human T-lymphoid cell line, H9, was provided by R. D. Gallo (NIH) and maintained in RPMI-1640 medium supplemented with 10% fetal bovine serum, 100 IU/mL penicillin, 100 μg/mL streptomycin an 2 mM L-glutamine. […] The titer of the virus stock was determined by serial dilution using syncytia formation and reverse transcriptase activity (see below) as a measure of infectivity in H9 cells. […]
Syncytia Assay. The number of syncytia in each well was determined by microscopic examination on days 4-6 (infected, untreated control cultures), 8 and 10 (analog or decanoate treated cultures). The average number of multi-nucleated giant cells counted per 10 low-power fields (LPF =40 times magnification) was assigned to an arbitrary syncytia scale: 0=<1/LPF, 1+=1-4/LPF, 2+=5-7/LPF, 3+= 8-10/LPF, 4+=>10/LPF. By this criteria uninfected, control cells had zero synctia, and infected, untreated H9 cells were consistently scored as 4+.

The subject of another data set is MoMLV. The data set is described as follows: MoMLV replication: LZ1 virus titer by histochemical staining of NIH 3T3 cells for β-galactosidase. The format is cell-based, Maloney murine leukemia virus. The text has this: Panel A -Schematic representation of the MoMLV assay system. […] This cell produces infectious, replication defective virus (designated (LZ1) which carries the LacZ gene. When NIH3T3 cells are exposed to supernatant taken from the LZ1 virus producing cells, they are initially infected and their progeny are detectable by histochemical staining for β-galactosidase. Thus, the titer of the virus produced by the LZ1 cells after treatment with the various agents, can be readily determined by counting the number of blue NIH3T3 cells. Replication competent MoMLV is not detected using this assay system since the lacZ gene product is not present. Panel B - The effect of 6-oxamyristic acid and 13-oxamyristic acid on LZ1 virus production. The results represent the mean (+1 standard deviation) of three independent tests each done in duplicate. Panel C - Number of viable LZ1 producing cells at the end of a 2 day treatment with analog as measured by trypan blue exclusion. The results of duplicate assays were averaged. Panel D - The effects of analog treatment on incorporation of [^3 H]leucine. Cells in duplicate wells were pulse labeled for 4 h following three days of incubation with analog or ethanol (0.1%). Duplicate assays were performed. The results were averaged and expressed as a percentage of the results obtained from untreated cells.
Assay of the Effects of Analogs on the Replication of Maloney Murine Leukemia Virus. The LZ1 titer assay was developed for rapid histochemical quantitation of infectious virus production. In brief, the LZ1 virus-producing cell line was derived by Sanes et al., EMBO J. 5, 3133-3142 (1986), from the .PSI.-2 cell line. .PSI.-2-cells are NIH 3T3 cells that contain a stably integrated packaging mutant (pMOV-.PSI.-) of MoMLV. This mutant has a deletion of 350 nucleotides between the 5' donor splice site for env and the initiator methionine codon for Pr65^gag [Mann et al., Cell 33, 153-159 (1983)]. The LZ1 cell line is a subclone of .PSI.-2 cells that were co-transfectd with pM-MuLV-SV-LacZ [Sanes et al., supra.]and pSVTK neoB and then selected for G418 (Geneticin®) antibiotic resistance and production of defective MoMLV containing the E. coli β-galactosidase gene [Sanes et al., supra.]. The recombinant virus produced by LZ1 cells is capable of primary infection of NIH 3T3 cells but is replication defective [Sanes et al., surpa.]. Infected NIH 3T3 containing the lac-Z gene can be identified by histochemical staining for β-galactosidase activity.
To assess the effects of analog treatment on MoMLV replication, 1 × 10^5 LZ1 producing cells were added to each well of a 24-well tissue culture plate in 1 mL of Dulbecco's Modified Eagle's medium (DME) containing calf serum (final concentration =10%), penicillin (100 IU/mL), streptomycin (100 μg/mL) with or without analog (10-100 μM). After 24 h, the media was removed and fresh serum-containing media ±analog was added. The next day (48 hours after plating), the virus containing supernatant was removed and passed through a 0.2 μm filter. Various size aliquots (25-100 μL of the 1 mL filtrate) were added to 1 × 10^4 NIH 3T3 cells contained in 1 mL of DME/10% calf serum/penicillin/streptomycin. These indicator cells had been plated 24 h earlier in 24 well tissue culture plates. Polybrene (Sigma) was added at the same time as the filtrate so that its final concentration was 10 μg/mL. […]

Data set [2] concerns HIV-1. The data set is described as follows: HIV-1 replication in H9 cells, reverse transcriptase activity of culture supernatants (acute infection). The format is cell-based, HIV-1 strain HXB2gptX (in human H9 cells). The note with it: for activity at 100 µM: Human immunodeficiency virus 1, H9, 240 h, read-out: reverse transcriptase (RT) activity; for effect on reverse transcriptase activity: 1-10 μM, 10 day incubation, HIV-1 infected H9 cells. The protocol: as §1
Assay for HIV-1 Replication. The human T-lymphoid cell line, H9, was provided by R. D. Gallo (NIH) and maintained in RPMI-1640 medium supplemented with 10% fetal bovine serum, 100 IU/mL penicillin, 100 μg/mL streptomycin an 2 mM L-glutamine. HIV-1 strain HXB2gptX [Fisher et al., Science 233, 655-659 (1986)] was obtained from cultures of chronically infected H9 cells [Popovic et al., Science 224, 497-500 (1984)]< filtered through 0.2 μm Millipore filters and stored at -90° C. The titer of the virus stock was determined by serial dilution using syncytia formation and reverse transcriptase activity (see below) as a measure of infectivity in H9 cells.
Cell-free HIV-1, at a multiplicity of infection (m.o.i.) equal to 0.01-0.001, was added to 10^7 H9 cells which had been pretreated with 2 μg/ml Polybrene® (hexadimethrene bromide, Sigma). Following a 30 min incubation at 37° C. to absorb the virus, 4 × 10^5 of virus treated cells in 1 mL of fresh medium (plus 10% fetal calf serum, pencillin and streptomycin) were added to each well of a 24 well tissue culture plate (Falcon), and mixed with an equal volume of serum-free RPMI-1640 medium containing analog. Medium containing 5% serum, antibiotics ± analog was replaced every other day. Each of the heteroatom substituted analogs was prepared as a 100 mM stock solution in 100% ethanol and stored at -90° C. prior to dilution in the serum-free RPMI-1640 medium. The maximum final ethanol concentration reached after dilution of the different analogs in media was 0.1%. Therefore, uninfected and infected H9 cells, treated with or without 0.1% ethanol, were used as controls for each test. Ethanol alone had no demonstrable effects.
Except for the preliminary screening of the various (coded) analogs which was done twice, all other assays were performed at least three times. Samples were tested in duplicate each time the assay was repeated.
Virus Assays. Virus was quantitated using supernatant solutions of cells harvested on day 8 (m.o.i.=0.01) or day 10 (m.o.i.=0.001) of treatment. Virions were concentrated 10 fold by precipitation of culture supernatants with a solution of polyethylene glycol (30% in 150 mM NaCl, 0.1 mM phenylmethylsulfonylfluoride). The precipitates were solubilized and virus-associated reverse transcriptase (RT) activity measured by [^32 P]TTP incorporation using a poly(rA)-oligo(dT) template [Poiesz et al., Proc. Natl. Acad. Sci. USA 77, 7415-7419 (1980)]. Cell supernatants were also tested for virus-specific antigen using a p24 ELISA from Dupont (Wilmington, DE). This assay can detect as little as 0.03 ng of antigen/mL (antigen=p24, the major structural nucleocapsid protein of HIV-1, as well as its precursor, Pr55^gag).
HIV-1 Replication in H9 Cells is Inhibited by Treatment with Heteroatom-Containing Analogs of Myristate. […]

Data set [3] deals with myristoyl CoA: protein N-myristoyl transferase (NMT). Kind of data set: Ability to act as substrate for NMT. The format is biochemical. The source says:
Purification and use of this enzyme are described, for example, by Towler et al., Proc. Natl. Acad. Sci. USA 84, 2708-2712 (1987); J. Biol. Chem. 262, 1030-1036 (1987).

A further data set in a line: Hydrophobicity. The format is physicochemical. The note with it: thioether moiety introduced into the fatty acid chain.
The subject of the next data set is AIDS virus (HIV). The following applies: cited from earlier work.

Some results are limits rather than exact numbers.

Turning to `CCCCOCCCCCCCCCCC(=O)O` [Compound I, 11-(1-butoxy)undecanoic acid], the “effectiveness versus analogs based on C13-C14 fatty acids” value with virus was “less effective than the analogs based on C13 -C14 fatty acids”.
On to `CCCCCCCCCC(=O)O` [decanoic acid, reference compound], for which the “effect on number of syncytia” value with HIV-1 [1] is recorded as “no effect on the number of synctia”. Besides, the “reduction of MoMLV titers compared to untreated controls” value in the data set on MoMLV (10-100 μM, 2 day treatment of LZ1 cells) is reported as “no significant reductions”. The activity at 100 µM with HIV-1 [2] worked out at 80%.
As for `CCCCCCCCOCCCCC(=O)O` [6-oxamyristate, 5-(octyloxy)pentanoic acid], the inhibition at 100 µM in the data set on MoMLV (Murine leukemia virus, NIH3T3, 48 h, read-out: average reduction in virus titers (MoMLV)) was over 60%. Besides, the inhibition at 10 µM in the data set with MoMLV (Murine leukemia virus, NIH3T3, 48 h, read-out: reduction in MoMLV replication (virus titer)) came to 40%. The “effect on MoMLV replication” value with MoMLV (up to 100 μM, 2 day treatment of LZ1 cells) was “inhibits MoMLV replication in a concentration dependent fashion”. For the same compound, in the data set on HIV-1 [2], the “effect on reverse transcriptase activity” value is on record as “No reduction in reverse transcriptase activity” and the activity at 100 µM was determined as 20%. Moreover, the “relative efficacy on HIV-1 production” value in the data set on HIV-1 [2] (1-100 μM, H9 cells, ranking among the four analogs) is “least effective”. The “effect on HIV-1 production / replication” value in the data set on HIV-1 [2] (H9 cells) is reported as “no effect on HIV-1 replication”.
As to `CCSCCCCCCCCCCC(=O)O` [12thiamyristate, 11-(Ethylthio)undecanoic acid], in the data set with HIV-1 [2], the “effect on reverse transcriptase activity” value is recorded as “More pronounced effects”. In data set [3], the “ability to act as a substrate for NMT” value is listed as “leaves intact its ability to act as a substrate”. In the data set “Hydrophobicity”, the hydrophobicity entry is reported as “decreases its hydrophobicity”.
In the case of `Cc1cn([C@H]2C[C@H](N=[N+]=[N-])[C@@H](CO)O2)c(=O)[nH]c1=O` [AZT, 3'-azido-3'-deoxythymidine, reference compound], the inhibition at 5 µM in the data set with HIV-1 [2] (Human immunodeficiency virus 1, H9, read-out: inhibition of viral replication in the H9 acute assay) was over 90%. Further, in the data set with AIDS virus (HIV), the “inhibition of replication of the virus in vitro” value is recorded as “shown to inhibit replicaton of the virus in vitro”.
Regarding `CCCOCCCCCCCCCC(=O)O` [11oxamyristate, 10-(Propoxy)decanoic acid], in the data set on HIV-1 [2], the “effect on reverse transcriptase activity” value is “More pronounced effects”.
